Test results taken from PubChem BioAssay (NCI).
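Five compound concentrations were applied to cells in 96-well plates for 48 hours; endpoints were derived by simple linear interpolation of the resulting dose-response curve. Abbreviation: GI50, concentration required for 50% inhibition of growth. The concentration for full growth arrest is given as TGI.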

Legend:
Assay in all cases: DTP human tumour cell line panel, 48 h
[1] = tested on: PC-3 prostate
[2] = tested on: OVCAR-8 ovarian
[3] = tested on: 786-0 renal
[4] = tested on: SK-MEL-28 melanoma
[5] = tested on: UACC-257 melanoma
[6] = tested on: SK-MEL-5 melanoma
[7] = tested on: SNB-75 CNS
[8] = tested on: ACHN renal
[9] = tested on: HOP-92 NSCLC
[10] = tested on: HOP-62 NSCLC
[11] = tested on: OVCAR-5 ovarian
[12] = tested on: DU-145 prostate
[13] = tested on: SW-620 colon
[14] = tested on: SF-539 CNS
[15] = tested on: MCF7 breast
[16] = tested on: OVCAR-4 ovarian
[17] = tested on: HT29 colon
[18] = tested on: MDA-MB-231 breast
[19] = tested on: SR leukemia
[20] = tested on: M14 melanoma
[21] = tested on: HCC-2998 colon
[22] = tested on: HCT-116 colon
[23] = tested on: T-47D breast
[24] = tested on: SF-295 CNS
[25] = tested on: NCI-H460 lung
[26] = tested on: BT-549 breast
[27] = tested on: A498 renal
[28] = tested on: NCI-H226 lung
[29] = tested on: CCRF-CEM leukemia
[30] = tested on: SK-OV-3 ovarian
[31] = tested on: SF-268 CNS
[32] = tested on: COLO 205 colon
[33] = tested on: NCI-H23 lung
[34] = tested on: HS 578T breast
[35] = tested on: HL-60(TB) leukemia
[36] = tested on: MALME-3M melanoma
[37] = tested on: SNB-19 CNS
[38] = tested on: LOX IMVI melanoma
[39] = tested on: UO-31 renal
[40] = tested on: SN12C renal
[41] = tested on: OVCAR-3 ovarian
[42] = tested on: TK-10 renal
[43] = tested on: SK-MEL-2 melanoma
[44] = tested on: UACC-62 melanoma
[45] = tested on: NCI/ADR-RES ovarian
[46] = tested on: MDA-MB-435
[47] = tested on: MOLT-4 leukemia
[48] = tested on: K-562 leukemia
[49] = tested on: EKVX NSCLC
[50] = tested on: U251 CNS
[51] = tested on: HCT-15 colon
[52] = tested on: NCI-H522 lung
[53] = tested on: CAKI-1 renal
[54] = tested on: KM12 colon

COC(=O)/C(Br)=C/c1c[nH]c2ccc(Br)cc12 was tested, and the GI50 [1] was 11.2 µM, the TGI [1] was 27.8 µM and the GI50 [2] was 18.2 µM. The TGI [2] was 34.3 µM, the GI50 [3] was 13 µM and the TGI [3] was 35.9 µM. The GI50 [4] was 14.3 µM, the TGI [4] was 27.8 µM and the GI50 [5] was 24.1 µM. The TGI [5] was 69.4 µM, the GI50 [6] was 12.2 µM and the TGI [6] was 24.6 µM. For the same molecule, the GI50 [7] was 12.2 µM, the TGI [7] was 33 µM and the GI50 [8] was 11.8 µM. For the same molecule, the TGI [8] was 43.2 µM, the GI50 [9] was 2.13 µM and the TGI [9] was 15.7 µM. The GI50 [10] was 17.6 µM, the TGI [10] was 51.9 µM and the GI50 [11] was 13.6 µM. For the same molecule, the TGI [11] was 31.3 µM, the GI50 [12] was 13.2 µM and the TGI [12] was 25.9 µM. For the same molecule, the GI50 [13] was 14.7 µM, the TGI [13] was 27.8 µM and the GI50 [14] was 14.9 µM. The TGI [14] was 32.9 µM, the GI50 [15] was 10.9 µM and the TGI [15] was 26.8 µM. For the same molecule, the GI50 [16] was 10.7 µM, the TGI [16] was 56.8 µM and the GI50 [17] was 11 µM. The TGI [17] was 24.8 µM, the GI50 [18] was 11.2 µM and the TGI [18] was 30.4 µM. The GI50 [19] was 26.9 µM, the TGI [19] was greater than 100 µM and the GI50 [20] was 11.4 µM. For the same molecule, the TGI [20] was 25.8 µM, the GI50 [21] was 15.9 µM and the TGI [21] was 30.4 µM. The GI50 [22] was 12.5 µM, the TGI [22] was 27.4 µM and the GI50 [23] was 11.1 µM. For the same molecule, the TGI [23] was 24.5 µM, the GI50 [24] was 12.4 µM and the TGI [24] was 27.3 µM. The GI50 [25] was 17.6 µM, the TGI [25] was 36.9 µM and the GI50 [26] was 11.2 µM. It also gave a TGI [26] of 23.6 µM, a GI50 [27] of 7.98 µM and a TGI [27] of 20.9 µM. The GI50 [28] was 14.4 µM, the TGI [28] was 33.2 µM and the GI50 [29] was 4.87 µM. The TGI [29] was 22.8 µM, the GI50 [30] was 17.7 µM and the TGI [30] was 53.9 µM. The GI50 [31] was 15.6 µM, the TGI [31] was 60.3 µM and the GI50 [32] was 12.5 µM. For the same molecule, the TGI [32] was 25.1 µM, the GI50 [33] was 15.3 µM and the TGI [33] was 33 µM. It also gave a GI50 [34] of 1.71 µM, a TGI [34] of 17.1 µM and a GI50 [35] of 61.3 µM. It also gave a TGI [35] greater than 100 µM, a GI50 [36] of 14.5 µM and a TGI [36] of 28.3 µM. For the same molecule, the GI50 [37] was 16.7 µM, the TGI [37] was 45.7 µM and the GI50 [38] was 7.18 µM. The TGI [38] was 20.2 µM, the GI50 [39] was 6.36 µM and the TGI [39] was 30.1 µM. For the same molecule, the GI50 [40] was 18.4 µM, the TGI [40] was 43.3 µM and the GI50 [41] was 16.2 µM. It also gave a TGI [41] of 66.9 µM, a GI50 [42] of 19 µM and a TGI [42] of 49.4 µM. The GI50 [43] was 6.9 µM, the TGI [43] was 25.4 µM and the GI50 [44] was 12.4 µM. For the same molecule, the TGI [44] was 26.7 µM, the GI50 [45] was 12.4 µM and the TGI [45] was 47.8 µM. For the same molecule, the GI50 [46] was 12.2 µM, the TGI [46] was 25.3 µM and the GI50 [47] was 10.6 µM. For the same molecule, the TGI [47] was greater than 100 µM, the GI50 [48] was greater than 100 µM and the TGI [48] was greater than 100 µM. The GI50 [49] was 12.3 µM, the TGI [49] was 29.7 µM and the GI50 [50] was 10.2 µM. For the same molecule, the TGI [50] was 28.6 µM, the GI50 [51] was 6.26 µM and the TGI [51] was 21.4 µM. The GI50 [52] was 10.2 µM, the TGI [52] was 32.1 µM and the GI50 [53] was 12.9 µM. It also gave a TGI [53] of 29.1 µM, a GI50 [54] of 12.6 µM and a TGI [54] of 27 µM.
